Assay: Solubility in organic solvent (Test Example 1)
Assay type: physicochemical
Conditions: monomer, stirred for 1 hour; for degree of dissolution in MEK: 1 g added to MEK at 25° C.; for degree of dissolution in PGME: 1 g added to PGME at 25° C.; for degree of dissolution in PGMEA: 1 g added to PGMEA at 25° C.; for degree of dissolution in Butyl acetate: 1 g added to butyl acetate at 25° C.
Source text: Among the monomers used in Polymer Synthesis Examples 1 to 4 and Comparative Polymer Synthesis Examples 1 to 4, with respect to compounds (m0-1) and (m0-2) which are classified as a structural unit (a0), compounds (m2-1) and (m2-2) which are classified as a structural unit (a2), a compound in which the —S(═O)2— portion of the compound (m0-1) has been replaced with —C(═O)— (a compound in which the cyclic group within the compound (m0-1) has been replaced with the cyclic group of the compound (m2-1), hereafter referred to as compound (m2-3)), and polymeric compounds 1, 1′ and 4′, the solubility in an organic solvent was evaluated as follows.
1 g of each compound was added to an organic solvent indicated in Table 1 at 25° C., and stirred for 1 hour. After the stirring, the degree of dissolution of each compound in each organic solvent was evaluated with the following criteria. […]

SMILES | degree of dissolution in MEK | degree of dissolution in PGME | degree of dissolution in PGMEA | degree of dissolution in Butyl acetate
C=C(C)C(=O)OCC(=O)OC1C2CC3C1OS(=O)(=O)C3C2 (stereo not shown) [Compound (m0-1)] | B (15% by weight or more but less than 40% by weight) | C (7% by weight or more but less than 15% by weight) | C (7% by weight or more but less than 15% by weight) | C (7% by weight or more but less than 15% by weight)
C=C(C)C(=O)OC1C2CC3C1OS(=O)(=O)C3C2 (stereo not shown) [Compound (m0-2)] | B (15% by weight or more but less than 40% by weight) | C (7% by weight or more but less than 15% by weight) | C (7% by weight or more but less than 15% by weight) | D (less than 7% by weight)
C=C(C)C(=O)OC1C2CC3C(=O)OC1C3C2 (stereo not shown) [Compound (m2-1)] | B (15% by weight or more but less than 40% by weight) | C (7% by weight or more but less than 15% by weight) | B (15% by weight or more but less than 40% by weight) | C (7% by weight or more but less than 15% by weight)
C=C(C)C(=O)OC1CCOC1=O (stereo not shown) [Compound (m2-2)] | A (40% by weight or more) | A (40% by weight or more) | A (40% by weight or more) | A (40% by weight or more)
